The record followed here is ChEMBL document CHEMBL1138844, “Synthesis and biological evaluation of 1-aryl-4,5-dihydro-1H-pyrazolo[3,4-d]pyrimidin-4-one inhibitors of cyclin-dependent kinases” (J Med Chem, 2004).

Structures are written as SMILES.

In assay [1] the target is Cyclin-dependent kinase 4/cyclin D1 (Homo sapiens, UniProt P11802). Nature of the assay: Inhibition of Cyclin-dependent kinase 4-cyclin D1. The class given is protein-complex assay.
Assay [2] has as its target Cyclin-dependent kinase 2/cyclin E (Homo sapiens, UniProt P24941).
Description: Inhibition of Cyclin-dependent kinase 2-cyclin E

Chain of Cyclin-dependent kinase 4/cyclin D1 (P11802 whole entry): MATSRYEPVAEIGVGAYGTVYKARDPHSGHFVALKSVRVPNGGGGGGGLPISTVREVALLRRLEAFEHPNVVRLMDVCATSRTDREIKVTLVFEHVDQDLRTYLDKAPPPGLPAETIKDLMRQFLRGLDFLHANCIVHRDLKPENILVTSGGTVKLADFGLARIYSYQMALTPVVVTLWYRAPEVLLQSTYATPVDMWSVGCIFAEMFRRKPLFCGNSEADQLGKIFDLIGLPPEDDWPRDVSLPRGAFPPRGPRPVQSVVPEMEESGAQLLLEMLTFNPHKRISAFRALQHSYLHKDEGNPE
Chain of Cyclin-dependent kinase 4/cyclin D1 (P24385 whole entry, further chain): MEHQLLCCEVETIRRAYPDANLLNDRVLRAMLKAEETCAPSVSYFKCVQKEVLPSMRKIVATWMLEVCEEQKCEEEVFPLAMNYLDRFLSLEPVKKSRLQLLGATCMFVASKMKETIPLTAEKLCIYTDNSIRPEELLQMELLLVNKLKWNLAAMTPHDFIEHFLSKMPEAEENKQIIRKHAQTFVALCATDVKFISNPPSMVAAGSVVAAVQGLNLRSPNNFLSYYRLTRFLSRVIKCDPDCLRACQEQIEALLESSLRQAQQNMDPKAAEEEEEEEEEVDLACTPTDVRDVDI

On to `CSc1nn(-c2ccccc2Cl)c2nc(C)[nH]c(=O)c12`, for which half-maximal inhibition in assay [1] (IC50) required 19 µM. On the same count and under the same terms, next, `CSc1nn(-c2c(Cl)cc(Cl)cc2Cl)c2nc(C(C)C)[nH]c(=O)c12`: 10 µM. `CSc1nn(-c2c(Cl)cc(Cl)cc2Cl)c2nc(C3CC3)[nH]c(=O)c12`: the IC50 in assay [1] was found to be 4.3 µM; in assay [2] it was 0.4 µM. Compound `Cc1nc2c(c(C(F)(F)F)nn2-c2c(Cl)cc(Cl)cc2Cl)c(=O)[nH]1` came in with a half-inhibitory concentration (IC50) in assay [1] of 3.1 µM.

`CCc1nn(-c2c(Cl)cc(Cl)cc2Cl)c2nc(CCSC)[nH]c(=O)c12` had a half-maximal inhibitory concentration (IC50) in assay [1] of 6.5 µM. With `CSc1nn(-c2ccccc2)c2nc(C)[nH]c(=O)c12`, the IC50 in assay [1] was more than 180 µM.

With `Cc1nc2c(c(CO)nn2-c2c(Cl)cc(Cl)cc2Cl)c(=O)[nH]1`, it took 7 µM to reach half-maximal inhibition in assay [1] (IC50). As for `CSc1nn(-c2cccc(Cl)c2)c2nc(C)[nH]c(=O)c12`, the 50% inhibitory concentration (IC50) in assay [1] is more than 160 µM. The same measure, in the same setting: next, `CSc1nn(-c2c(Cl)cc(Cl)cc2Cl)c2nc(-c3ccco3)[nH]c(=O)c12`: 36 µM. For `CCc1nn(-c2c(Cl)cc(Cl)cc2Cl)c2nc(C)n(C)c(=O)c12`, the half-maximal inhibitory concentration (IC50) in assay [1] and in assay [2] was more than 27 µM each time. Take `CCCc1nc2c(c(SC)nn2-c2c(Cl)cc(Cl)cc2Cl)c(=O)[nH]1`: in assay [1], the half-maximal inhibitory concentration (IC50) is 9.1 µM. With `CSCc1nc2c(c(SC)nn2-c2c(Cl)cc(Cl)cc2Cl)c(=O)[nH]1`, the concentration for half-maximal inhibition (IC50) worked out at 15 µM in assay [1] and 0.31 µM in assay [2]. `CCCCc1nn(-c2c(Cl)cc(Cl)cc2Cl)c2nc(C)[nH]c(=O)c12`: in assay [1], the half-inhibitory concentration (IC50) was more than 6.5 µM. Take `CCc1nn(-c2c(Cl)cc(Cl)cc2Cl)c2nc(CCc3cnc[nH]3)[nH]c(=O)c12`: the IC50 turned out to be 3.6 µM in assay [1] and 0.62 µM in assay [2]. As to `CCc1nn(-c2c(Cl)cc(Cl)cc2Cl)c2nc(C)nc(N)c12`, in assay [1], the IC50 was more than 140 µM.

In assay [1], `Cc1nc2c(cnn2-c2c(Cl)cc(Cl)cc2Cl)c(=O)[nH]1` gave an IC50 of 12 µM.

In assay [1], `CSc1nn(-c2ccccn2)c2nc(C)[nH]c(=O)c12` displayed an IC50 of more than 180 µM. `CSc1nn(-c2c(Cl)cc(Cl)cc2Cl)c2nc(CCCCCO)[nH]c(=O)c12`: the figures for the 50% inhibitory concentration (IC50) in assay [1] and in assay [2] were 10 µM and 0.42 µM, respectively. In assay [1], `CSc1nn(-c2c(Cl)cccc2Cl)c2nc(C)[nH]c(=O)c12` yielded an IC50 of 5.3 µM. Consider `CSc1nn(-c2c(Cl)cc(Cl)cc2C(F)(F)F)c2nc(C)[nH]c(=O)c12`, for which the midpoint of inhibition in assay [1], the IC50, lay at 29 µM. The compound `CSc1nn(-c2c(C)cc(Cl)cc2Cl)c2nc(C)[nH]c(=O)c12` came in with a concentration for half-maximal inhibition (IC50) in assay [1] of 11 µM. On to `CSc1nn(Cc2ccccc2)c2nc(C)[nH]c(=O)c12`, for which, in assay [1], the IC50 is more than 150 µM. Consider `CSc1nn(-c2c(Cl)cc(Cl)cc2Cl)c2nc(CN(C)C(=O)OC(C)(C)C)[nH]c(=O)c12`, for which, in assay [1], the half-inhibitory concentration (IC50) was more than 50 µM. In the case of `CSc1nn(-c2c(Cl)cc(Cl)cc2Cl)c2nc[nH]c(=O)c12`, the IC50 in assay [1] stood at 95 µM; in assay [2] it was 2.7 µM.

Take `C=Cc1nc2c(c(CC)nn2-c2c(Cl)cc(Cl)cc2Cl)c(=O)[nH]1`: the 50% inhibitory concentration (IC50) in assay [1] was found to be 2.9 µM; in assay [2], 0.31 µM.

Take `CSc1nn(-c2cc(C)ccc2C)c2nc(C)[nH]c(=O)c12`: the IC50 in assay [1] amounted to 25 µM. For the compound `CSc1nn(-c2c(Cl)cc(Cl)cc2Cl)c2nc(CCCO)[nH]c(=O)c12`, the IC50 in assay [1] is 13 µM; in assay [2] it was 0.76 µM. Consider `Cc1nc2c(c(C#N)nn2-c2c(Cl)cc(Cl)cc2Cl)c(=O)[nH]1`, for which the half-inhibitory concentration (IC50) in assay [1] was more than 28 µM. The same measure, in the same setting: for `CSc1nn(-c2c(Cl)cc(Cl)cc2Cl)c2nc(C(F)(F)F)[nH]c(=O)c12` the value was more than 116 µM; for `CSc1nn(-c2c(C)cc(C)cc2C)c2nc(C)[nH]c(=O)c12`, 37 µM. Take `CSc1nn(-c2c(Cl)cc(Cl)cc2Cl)c2nc(CF)[nH]c(=O)c12`: the IC50 was 44 µM in assay [1] and 1.6 µM in assay [2].

As to `CCc1nn(-c2c(Cl)cc(Cl)cc2Cl)c2nc(-c3ccc(OC)c(OC)c3)[nH]c(=O)c12`, the half-maximal inhibitory concentration (IC50) in assay [1] is more than 21 µM; in assay [2], 0.58 µM. Compound `CSc1nn(-c2ccc(C)cc2C)c2nc(C)[nH]c(=O)c12` came in with a 50% inhibitory concentration (IC50) in assay [1] of 48 µM. The same measure, in the same setting: next, `Cc1nc2c(c(CCO)nn2-c2c(Cl)cc(Cl)cc2Cl)c(=O)[nH]1`: more than 140 µM; `CSc1nn(-c2ccc(C(C)C)cc2)c2nc(C)[nH]c(=O)c12`: more than 160 µM. For `CCc1nc2c(c(CC)nn2-c2c(Cl)cc(Cl)cc2Cl)c(=O)[nH]1`, the concentration for half-maximal inhibition (IC50) was 0.94 µM in assay [1] and 0.09 µM in assay [2]. Consider `CSc1nn(-c2c(Cl)cc(C(F)(F)F)cc2Cl)c2nc(C)[nH]c(=O)c12`, for which the IC50 in assay [1] is 8 µM. The same measure, in the same setting: for `CSc1nn(-c2c(Cl)cc(Cl)cc2Cl)c2nc(Cc3cccs3)[nH]c(=O)c12` the value was 20 µM. With `CCc1nn(-c2c(Cl)cc(Cl)cc2Cl)c2nc(CCc3ccccc3)[nH]c(=O)c12`, the half-maximal inhibitory concentration (IC50) is 7.1 µM in assay [1] and 1.8 µM in assay [2]. On to `CSc1nn(CCO)c2nc(C)[nH]c(=O)c12`, for which, in assay [1], the IC50 is more than 210 µM.

As for `CCc1nn(-c2c(Cl)cc(Cl)cc2Cl)c2nc(CCCCO)[nH]c(=O)c12`, the values for the half-inhibitory concentration (IC50) in assay [1] and in assay [2] were 2.4 µM and 0.25 µM, respectively. For the compound `CSc1nn(-c2c(Cl)cc(Cl)cc2Cl)c2nc(C(C)O)[nH]c(=O)c12` (stereo not given), in assay [1], the midpoint of inhibition, the IC50, lay at 27 µM. The compound `CSc1nn(-c2ccc(Cl)cc2C)c2nc(C)[nH]c(=O)c12` gave an IC50 in assay [1] of 74 µM. `CCc1nn(-c2c(Cl)cc(Cl)cc2Cl)c2nc(CC(C)C)[nH]c(=O)c12`: the values for the half-maximal inhibitory concentration (IC50) in assay [1] and in assay [2] were more than 6.3 µM and 0.11 µM, respectively.

In assay [1], `CSc1nn(-c2ccc(Cl)cc2)c2nc(C)[nH]c(=O)c12` had an IC50 of more than 160 µM. Same read-out and setting: next, `CSc1nn(C(C)(C)C)c2nc(C)[nH]c(=O)c12`: more than 100 µM. As to `CCc1nn(-c2c(Cl)cc(Cl)cc2Cl)c2nc(C)[nH]c(=O)c12`, the half-maximal inhibitory concentration (IC50) was found to be 1.1 µM in assay [1] and 0.14 µM in assay [2]. Take `CSc1nn(-c2cccc(Cl)c2Cl)c2nc(C)[nH]c(=O)c12`: in assay [1], the 50% inhibitory concentration (IC50) is 50 µM.

In the case of `Cc1nc2c(c(-c3ccccc3)nn2-c2c(Cl)cc(Cl)cc2Cl)c(=O)[nH]1`, the half-inhibitory concentration (IC50) in assay [1] is more than 120 µM. On the same count and under the same terms, for `Cc1nc2c(c(Cc3ccccc3)nn2-c2c(Cl)cc(Cl)cc2Cl)c(=O)[nH]1` the value was more than 48 µM.

For the compound `CSc1nn(-c2cc(Cl)ccc2Cl)c2nc(C)[nH]c(=O)c12`, the IC50 in assay [1] was determined as 23 µM. `CCc1nn(-c2c(Cl)cc(Cl)cc2Cl)c2c1S(=O)(=O)NC(C)=N2`: the half-inhibitory concentration (IC50) is more than 51 µM in assay [1] and more than 13 µM in assay [2]. `COc1ccccc1-n1nc(SC)c2c(=O)[nH]c(C)nc21` displayed a half-maximal inhibitory concentration (IC50) in assay [1] of more than 83 µM. On the same count and under the same terms, for `CSc1nn(-c2ccc(Cl)cc2Cl)c2nc(C)[nH]c(=O)c12` the value was 37 µM. Same read-out and setting: next, `Cc1nc2c(c(C)nn2-c2c(Cl)cc(Cl)cc2Cl)c(=O)[nH]1`: 3.5 µM; `CCCCn1nc(SC)c2c(=O)[nH]c(C)nc21`: more than 200 µM. Same read-out and setting: next, `CCCc1nn(-c2c(Cl)cc(Cl)cc2Cl)c2nc(C)[nH]c(=O)c12`: 5.7 µM. As for `CSc1nn(-c2c(Cl)cc(Cl)cc2Cl)c2nc(CCN(C)C(=O)OC(C)(C)C)[nH]c(=O)c12`, the IC50 in assay [1] was more than 48 µM; in assay [2] it was 19 µM. Take `COC(=O)c1nc2c(c(SC)nn2-c2c(Cl)cc(Cl)cc2Cl)c(=O)[nH]1`: half-maximal inhibition in assay [1] (IC50) was put at 240 µM. Same read-out and setting: for `CSc1nn(-c2cc(C(F)(F)F)ccc2Cl)c2nc(C)[nH]c(=O)c12` the value was 15 µM. Same read-out and setting: for `CNCc1nc(O)c2c(SC)nn(-c3c(Cl)cc(Cl)cc3Cl)c2n1` the value was more than 57 µM.

Consider `CNCCc1nc2c(c(SC)nn2-c2c(Cl)cc(Cl)cc2Cl)c(=O)[nH]1`, for which the IC50 in assay [1] stood at 28 µM; in assay [2], 6.6 µM.
